One compound from the NIST ThermoML archive (doi:10.1021/je800468h) can be followed below.

Each structure is given as a SMILES string. Numbers after ± are expanded uncertainties.

For the data set the following is noted: 298.15 K, 101 kPa, Liquid.

In the case of `CCCCCCn1cc[n+](C)c1.F[B-](F)(F)F` [1-hexyl-3-methylimidazolium tetrafluoroborate], the electrical conductivity (Alternating current cell with electrodes) stood at 0.1228 ± 0.0012 S/m. Besides, where the note is “Vibrating tube method”, the mass density is 1146.34 ± 7.1 kg/m3.
